Experimental data from US8466171B2, “Fused heterocyclic compounds useful as modulators of nuclear hormone receptor function” (Bristol-Myers Squibb Company, priority 2007, dated 2013).
Changes are numbered by the printed parent chain.

Experiments:
immature castrated rats [1] = details: cited from earlier work; for EC50 (increase in organ weight): immature castrated rats, dosing for 3 days
immature castrated rats [2] = experiment: Immature Rat Prostate Weight (IRPW) Assay; format: in vivo; details: TP versus free T
Source text: The activity of compounds of Formula (I) as AR antagonists can be investigated in an immature male rat model, as described in L. G. Hershberger et al., Proc. Soc.
Male sexual accessory organs, such as the prostate and seminal vesicles, play an important role in reproductive function. These glands are stimulated to grow and are maintained in size and secretory function by the continued presence of serum testosterone (T), which is the major serum androgen (>95%) produced by the Leydig cells in the testis under the control of the pituitary luteinizing hormone (LH) and follicle stimulating hormone (FSH). […] Adrenal androgens also contribute about 20% of total DHT in the rat prostate, compared to 40% of that in 65-year-old men. […] However, this is not a major pathway, since in both animals and humans, castration leads to almost complete involution of the prostate and seminal vesicles without concomitant adrenalectomy. […] […] […] Since the male sex organs are the tissues most responsive to modulation of the androgen activity, this model is used to determine the androgen dependent growth of the sex accessory organs in immature castrated rats.
Male immature rats (19-20 days old Sprague-Dawley, Harlan Sprague-Dawley) are castrated under metofane anesthesia. […] Experimental groups are as follows:
At the end of the 3-day treatment, the animals are sacrificed, and the ventral prostate weighed. […]

androgen receptor (AR) = molecular target: T1, androgen receptor (AR) (Homo sapiens, UniProt P10275); experiment: MDA-MB-453 Androgen Receptor Transactivation Assay; format: cell-based; details: MDA-MB-453 cells, PSA-Luc reporter, 3 nM DHT, 48 hour incubation
T1 sequence (P10275 1-920): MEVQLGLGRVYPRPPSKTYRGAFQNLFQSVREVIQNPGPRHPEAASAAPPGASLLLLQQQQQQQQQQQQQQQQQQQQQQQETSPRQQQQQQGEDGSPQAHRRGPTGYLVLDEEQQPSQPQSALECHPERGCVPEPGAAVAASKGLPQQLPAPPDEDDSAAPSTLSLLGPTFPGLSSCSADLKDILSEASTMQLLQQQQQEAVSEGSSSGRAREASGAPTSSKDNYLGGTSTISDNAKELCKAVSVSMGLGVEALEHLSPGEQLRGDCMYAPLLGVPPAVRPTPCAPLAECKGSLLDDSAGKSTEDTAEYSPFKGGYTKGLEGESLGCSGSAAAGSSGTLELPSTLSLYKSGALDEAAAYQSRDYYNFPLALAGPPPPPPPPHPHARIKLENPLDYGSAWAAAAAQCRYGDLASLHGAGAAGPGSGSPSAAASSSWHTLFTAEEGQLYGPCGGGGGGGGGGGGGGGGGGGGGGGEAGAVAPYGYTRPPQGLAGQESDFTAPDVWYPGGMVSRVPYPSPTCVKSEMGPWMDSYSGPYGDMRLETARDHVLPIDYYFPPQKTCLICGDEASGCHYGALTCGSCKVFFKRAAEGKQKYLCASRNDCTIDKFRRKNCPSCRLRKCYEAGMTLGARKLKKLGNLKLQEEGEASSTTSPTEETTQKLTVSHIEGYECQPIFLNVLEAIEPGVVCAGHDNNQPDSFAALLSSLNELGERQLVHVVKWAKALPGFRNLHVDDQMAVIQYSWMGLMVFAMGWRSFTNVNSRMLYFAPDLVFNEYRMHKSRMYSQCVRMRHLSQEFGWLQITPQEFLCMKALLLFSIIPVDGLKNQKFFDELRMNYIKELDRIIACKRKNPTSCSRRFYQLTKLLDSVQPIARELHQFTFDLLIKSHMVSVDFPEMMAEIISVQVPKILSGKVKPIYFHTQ
Source text: Compounds can be tested in a cell based transactivation assay used to measure the antagonism of androgen receptor (AR) transcriptional activity. […] The human breast adenocarcinoma MDA-MB-453 cell line (American Type Culture Collection, Rockville, Md., ATCC#: HTB-131), expressing a functional endogenous wild type AR, was transiently transfected with a reporter plasmid and tested for AR dependent transactivation activity in the absence or presence of test compounds. The pGL3 PSA-Luc reporter plasmid is comprised of the cDNA for the firefly luciferase gene and the upstream promoter sequences containing the androgen response elements (AREs) of the prostate specific antigen (PSA). This plasmid functions as a reporter for the transcription-modulating activity of the AR. In order to detect antagonists, the transactivation assay is conducted in the presence of constant concentration of the natural AR hormone (DHT) to induce a defined reporter signal. Addition of increasing concentrations of the suspected antagonist will decrease the reporter signal (luciferase activity).
MDA-MB-453 and 22 RV1 cells were maintained in DMEM (Cellgro, Cat. #10-014-CM) or RPMI 1640 (Gibco Cat. #11875-085) respectively and supplemented with 10% FBS (Invitrogen/GIBCO Life Science). Cells were bulk transfected in flasks with 1.3 ug/ml pGL3 PSA-Luc plasmid by using the Lipofectamine 2000 Reagent (Invitrogen, Cat. #11668-019) and serum-free Opti-MEM I media (Invitrogen, Cat#31985-070) according to the manufacturer's optimized conditions. Transfection was conducted at 37° C. with 5% CO2 for 16-18 hours. Following transfection, cells are washed, treated with trypsin, counted, and seeded in a 96-well plate at 30,000 cells per well in DMEM containing 10% Charcoal/Dextran Treated Fetal Bovine Serum (Gibco Cat. #11054-020) for MDA-MB-453 cells or RPMI 1640 (Gibco Cat. #110835) containing 10% FBS (Invitrogen/GIBCO Life Science) for 22 RV1 cells.
Following transfection, cells were incubated in the absence (blank) or presence (control) of 3 nM DHT (Sigma, Cat. #A-8380) and in the presence or absence of the standard antiandrogen bicalutamide or test compounds ranging in concentrations from 10^−10 to 10^−5M. Duplicates were used for each sample. The compound dilutions were performed by the Tecan Genesis (Tecan, Triangle Park, N.C.). After a 48 hour incubation, luciferase activity was measured using the Steady-Glo Luciferase Assay System (Promega, Cat. #E2550) according to manufacturer's specifications and luminescence was measured on a Packard TopCount (PerkinElmer). For each luciferase sample reading, the percent control (in absence of compounds) was calculated as: % Control=100×[averagesample−averageblank]/[averagecontrol−averageblank] Data was plotted and the IC50 value was defined as the concentration of compound that inhibited 50% of the luciferase activity for the controls.

wild type AR = molecular target: T2, wild type AR (Homo sapiens, UniProt P10275); experiment: AR Binding Assay (whole cell, MDA-MB-453, competition with [3H]-DHT); details: MDA-MB-453 cells, competition with 2 nM [3H]-DHT, Cheng-Prusoff
T2 sequence (P10275 1-920 Q868H): T1 sequence (P10275 1-920) with Q868H
Method: For the whole cell binding assay, human breast adenocarcinoma MDA-MB-453 cells (American Type Culture Collection, Rockville, Md., ATCC #: HTB-131), expressing a functional endogenous wild type AR, are grown to near confluency in T-225 tissue culture flasks containing Dulbecco's Modified Eagle Medium (DMEM) (Mediatech CAT #45000-668) supplemented with 10% fetal bovine serum (FBS) (Invitrogen/GIBCO Life Science). In order to remove any endogenous ligand that might be complexed with the receptor in the cells, the tissue culture media is removed and the cells are incubated overnight at 37° C. in serum-free DMEM. The next day, cells are rinsed with magnesium and calcium free Phosphate Buffered Saline (PBS) (Invitrogen/GIBCO Life Science), harvested using Cell Stripper Buffer (Mediatech) and re-suspended in serum-free DMEM to achieve a final assay concentration of 4×10^5 cells/well of a 96-well assay plate. […] After the remaining media is removed, cells are washed three times with PBS and harvested onto UniFilter GF/B plates (PerkinElmer).
Two replicates are used for each sample. After 90 minutes at room temperature, cells are harvested by filtering through a GF/B filter plate (PerkinElmer) followed by washing with ice-cold 1×PBS (without calcium and magnesium) to remove unbound label. […] After correcting for non-specific binding, IC50 values are determined. The IC50 value is defined as the concentration of competing ligand needed to reduce specific binding by 50%. […] The Ki values are determined by application of the Cheng-Prusoff equation to the IC50 values where: […]
See e.g., D. Rodbard, Mathematics and Statistics of Ligand Assays: An Illustrated Guide: In: J. Langon and J. J. Clapp, eds., Ligand Assay, Masson Publishing U.S.A., Inc., New York, pp. 45-99 (1981).

SMILES	serum concentrations of T and DHT relative to that of TP (immature castrated rats [1]; 2 hours after subcutaneous injection) [times]	EC50 (increase in organ weight) (immature castrated rats [1])	potency relative to free T (immature castrated rats [2])	IC50 (androgen receptor (AR)) [µM]	Ki (wild type AR) [µM]
C[C@]12CC[C@H]3[C@@H](CCC4=CC(=O)CC[C@@]43C)[C@@H]1CC[C@@H]2O [T, testosterone]	5	about 1 mg			
CCC(=O)O[C@H]1CC[C@H]2[C@@H]3CCC4=CC(=O)CC[C@]4(C)[C@H]3CC[C@]12C [TP, testosterone propionate]		~0.03 mg	10-30 fold		
COC(=O)N[C@@H]1C[C@H]2O[C@@H]1[C@H]1[C@@H]2CN(c2ccc(C#N)c(C(F)(F)F)c2)S1(=O)=O [Example 41i, methyl((1S,2R,6R,7R,9R)-4-(4-cyano-3-(trifluoromethyl)phenyl)-3,3-dioxido-10-oxa-3-thia-4-azatricyclo[5.2.1.0^2,6]dec-9-yl)carbamate]				8.25	0.354
N#Cc1ccc(N2C[C@H]3[C@H]4O[C@H]([C@@H]5O[C@@H]54)[C@H]3S2(=O)=O)cc1C(F)(F)F [Example 9, 4-((1R,2S,6S,7R,8R,10R)-3,3-dioxido-9,11-dioxa-3-thia-4-azatetracyclo[5.3.1.0^2,6.0^8,10]undec-4-yl)-2-(trifluoromethyl)benzonitrile]				2.64	0.092
N#Cc1ccc(N2C[C@@H]3[C@@H]4O[C@@H](C[C@@H]4O)[C@@H]3S2(=O)=O)cc1C(F)(F)F (single isomer, unassigned) [Example 37i]				0.154	0.01
